Assay type in all cases: cell-based
Experiment [1] relates to primary human fibroblasts derived from IPF patients (LL29 cells). Nature of the experiment: Inhibition of the fibrotic process: αSMA staining in TGF-β1 treated LL29 fibroblasts. The following applies: Fibroblast; for EC50: 96 h, LL29 cells, TGF-β1 20 ng/mL, 4 days, % αSMA positive cells; for inhibition at 10 µM: read-out: percent inhibition at 10 μM. The essentials:
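Read-out after 4-day incubation: αSMA staining with 1 μM SYTOX green nuclear counterstain (30 min, room temperature). Cells were LL29 primary fibroblasts from IPF patients, in 1% FBS F12, exposed to TGF-β1 with test compound, referenced to TGF-β1/DMSO control wells.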

In a further experiment the test system is SW480 colon cancer cells. The experiment can be described thus: Cell viability assay (CellTiter-Blue) in SW480 colon cancer cells. The following applies: Homo sapiens; for EC50: 96 h, SW480 cell viability, four days, CellTiter-Blue; for inhibition at 10 µM: SW480, read-out: percent inhibition at 10 μM. The essentials: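 Fluorescence from resazurin reduced to resorufin by metabolically active cells was the read-out, taken after ~3 h with CellTiter-Blue.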
In general terms: Alamar Blue is a resazurin reagent that responds to reducing activity.

The next experiment relates to IL-6. Nature of the experiment: IL-6 inhibition in LPS-stimulated THP-1 cells (HTRF). The note with it: Homo sapiens; for inhibition at 10 µM: THP-1, read-out: percent inhibition at 10 μM; for EC50: THP-1 cells, LPS 500 ng/mL, 22 hours, IL6 HTRF. The method in brief:
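After 24 h in 1% FBS medium, cells had compound 2 h before 500 ng/mL LPS, then 22 h more at 37 °C. DMSO-normalized HTRF signal (665/620 nm ratio, anti-IL-6 antibody pair) was fitted with a variable-slope four-parameter model to give EC50.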
For orientation: Time-resolved FRET reads energy transfer from a long-lived donor to a nearby acceptor.

The subject of another experiment is Wnt activity. Nature of the experiment: Wnt activity screening assay, Sp5-Luc reporter gene in SW480 cells. The following applies: Homo sapiens; for inhibition at 10 µM: SW480, read-out: percent inhibition at 10 μM; for EC50: Sp5-Luc reporter, SW480 cells, overnight incubation. The essentials: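 Read-out is BrightGlo luminescence, normalized to DMSO-treated cells and fitted by four-parameter variable-slope regression for EC50. Reporter cells: SW480 colon carcinoma carrying a stable lentiviral Sp5-Luc construct with eight TCF/LEF sites, seeded 4,000/well in 1% FBS, incubated overnight at 37° C.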

For experiment [2], the system named is primary human mesenchymal stem cells (hMSCs). Nature of the experiment: Induction of chondrogenesis in hMSCs (nodule count, Rhodamine B/Nile Red). The note with it: 6 days; for Emax: relative to TGF-β3 (10 ng/mL) positive control, read-out: Max. Activity as % TGF-β3 activity; for EC50: concentration required to induce 50% levels of chondrogenesis vs TGF-β3, read-out: Conc (nM) of 50% TGF-β3 activity. An excerpt:
Representative compounds were screened using primary human mesenchymal stem cells (hMSCs) to determine their ability to induce chondrogenesis (process by which cartilage is developed).
Primary human mesenchymal stem cells (hMSCs) were purchased from Lonza (Walkersville, Md.) and expanded in Mesenchymal Stem Cell Growth Media (Lonza). Cells between passage 3 and 6 were used for the experiments.
To image chondrogenic nodules, the cells were fixed using 4% formaldehyde (Electron Microscopy Sciences), and stained with 2 μg/mL Rhodamine B (Sigma-Aldrich) and 20 μM Nile Red (Sigma-Aldrich) [Johnson K., et.al, A Stem Cell-Based Approach to Cartilage Repair, Science, (2012). […] Number of nodules in each well was normalized to the average of 3 DMSO treated wells on the same plate using Excel (Microsoft Inc.). The normalized averages (fold change over DMSO) of 3 replicate wells for each compound concentration were calculated. Due to solubility limitations of some of the compounds, curve fitting was incomplete leading to inaccurate EC50 determinations.
Using TGF-β3 as a positive control, the concentration of representative compounds required to induce 50% levels of chondrogenesis is reported. In addition, the maximum activity of each compound and the respective dose that each compound reached maximum chondrogenesis activity is reported.

For `CC(C)(C)C(=O)Nc1cncc(-c2cc3c(-c4cc5c(-c6ccncc6)cncc5[nH]4)n[nH]c3cn2)c1` [Compound 120, N-(5-(3-(4-(Pyridin-4-yl)-1H-pyrrolo[2,3-c]pyridin-2-yl)-1H-pyrazolo[3,4-c]pyridin-5-yl)pyridin-3-yl)pivalamide], the EC50 is 5.35 µM in experiment [1], > 10 µM in the experiment on SW480 colon cancer cells, > 10 µM in the experiment on IL-6 and > 10 µM with Wnt activity. The figures for the inhibition at 10 µM with SW480 colon cancer cells, in the experiment with IL-6 and with Wnt activity were 29%, 16.4% and 22%, respectively. Besides, in experiment [2], the Emax was 30%.

For the molecule `Nc1cncc(-c2cc3c(-c4cc5c(-c6ccccc6F)cncc5[nH]4)n[nH]c3cn2)c1` [Compound 59, 5-(3-(4-(2-Fluorophenyl)-1H-pyrrolo[2,3-c]pyridin-2-yl)-1H-pyrazolo[3,4-c]pyridin-5-yl)pyridin-3-amine], the EC50 came to 1.77 µM in experiment [1], 3.4 µM in the experiment with SW480 colon cancer cells, 3.61 µM in the experiment with IL-6 and 1.63 µM with Wnt activity. In experiment [2], the Emax is 16%.

With `CCNCc1cncc(-c2cc3c(-c4cc5c(-c6cccnc6)cncc5[nH]4)n[nH]c3cn2)c1` [Compound 90, N-((5-(3-(4-(Pyridin-3-yl)-1H-pyrrolo[2,3-c]pyridin-2-yl)-1H-pyrazolo[3,4-c]pyridin-5-yl)pyridin-3-yl)methyl)ethanamine], the EC50 in experiment [1] was > 10 µM; in the experiment with SW480 colon cancer cells, > 10 µM; with IL-6, 1.06 µM; with Wnt activity it was 3.73 µM; in experiment [2], 10 nM. For the same molecule, the inhibition at 10 µM in experiment [1] is 0%; with SW480 colon cancer cells it was 13%. Also, in experiment [2], the Emax was 68%.

Consider `FC1(F)CCN(Cc2cncc(-c3cc4c(-c5cc6c(-c7cccnc7)cncc6[nH]5)n[nH]c4cn3)c2)C1` [Compound 110, 5-(5-((3,3-Difluoropyrrolidin-1-yl)methyl)pyridin-3-yl)-3-(4-(pyridin-3-yl)-1H-pyrrolo[2,3-c]pyridin-2-yl)-1H-pyrazolo[3,4-c]pyridine], for which the EC50 is 0.534 µM in experiment [1]; 2.14 µM with SW480 colon cancer cells; 0.688 µM in the experiment with IL-6; 0.914 µM with Wnt activity; 2700 nM in experiment [2]. Moreover, in experiment [2], the Emax amounted to 54%.

As to `CS(=O)(=O)NCc1cc(F)cc(-c2cncc3[nH]c(-c4n[nH]c5cnc(-c6cncc(NC(=O)C7CCC7)c6)cc45)cc23)c1` [Compound 497, N-(5-(3-(4-(3-Fluoro-5-(methylsulfonamidomethyl)phenyl)-1H-pyrrolo[2,3-c]pyridin-2-yl)-1H-pyrazolo[3,4-c]pyridin-5-yl)pyridin-3-yl)cyclobutanecarboxamide], the EC50 (in experiment [1]; in the experiment on SW480 colon cancer cells; in the experiment on IL-6; with Wnt activity) was > 10 µM each time. For the same molecule, the inhibition at 10 µM in experiment [1] stood at 27.8%; in the experiment on SW480 colon cancer cells it was 14.1%; in the experiment with IL-6, 0%; in the experiment with Wnt activity, 6.4%. Also, the Emax in experiment [2] came to 15%.

For the molecule `Fc1cccc(-c2cncc3[nH]c(-c4n[nH]c5cnc(-c6cccnc6)cc45)cc23)c1` [Compound 4, 3-(4-(3-Fluorophenyl)-1H-pyrrolo[2,3-c]pyridin-2-yl)-5-(pyridin-3-yl)-1H-pyrazolo[3,4-c]pyridine], the EC50 is 0.211 µM in experiment [1]; 0.734 µM in the experiment on SW480 colon cancer cells; > 10 µM in the experiment with IL-6; 0.89 µM in the experiment with Wnt activity; 2700 nM in experiment [2]. The inhibition at 10 µM in the experiment on IL-6 is 26.8%. The Emax in experiment [2] is 64%.

As to `Fc1ccc(-c2cncc3[nH]c(-c4n[nH]c5cnc(-c6cncnc6)cc45)cc23)cc1` [Compound 55, 3-(4-(4-Fluorophenyl)-1H-pyrrolo[2,3-c]pyridin-2-yl)-5-(pyrimidin-5-yl)-1H-pyrazolo[3,4-c]pyridine], the EC50 is > 10 µM in experiment [1]; 0.264 µM in the experiment on SW480 colon cancer cells; 0.975 µM in the experiment with IL-6; 0.555 µM in the experiment with Wnt activity; 900 nM in experiment [2]. In addition, the inhibition at 10 µM in experiment [1] is 56.4%. Further, the Emax in experiment [2] was 81%.

With `CCNCc1cncc(-c2cc3c(-c4cc5c(-c6ccccc6F)cncc5[nH]4)n[nH]c3cn2)c1` [Compound 62, N-((5-(3-(4-(2-Fluorophenyl)-1H-pyrrolo[2,3-c]pyridin-2-yl)-1H-pyrazolo[3,4-c]pyridin-5-yl)pyridin-3-yl)methyl)ethanamine], the EC50 in experiment [1] was 2.64 µM; in the experiment with SW480 colon cancer cells, > 10 µM; with IL-6, 3.66 µM; in the experiment on Wnt activity, 9.13 µM. In addition, the inhibition at 10 µM in the experiment with SW480 colon cancer cells came out at 44.4%. In addition, the Emax in experiment [2] came out at 21%.

For `CC(C)CC(=O)Nc1cncc(-c2cc3c(-c4cc5c(-c6cc(F)cc(CNS(C)(=O)=O)c6)cncc5[nH]4)n[nH]c3cn2)c1` [Compound 478, N-(5-(3-(4-(3-Fluoro-5-(methylsulfonamidomethyl)phenyl)-1H-pyrrolo[2,3-c]pyridin-2-yl)-1H-pyrazolo[3,4-c]pyridin-5-yl)pyridin-3-yl)-3-methylbutanamide], the EC50 (in experiment [1]; in the experiment on SW480 colon cancer cells; with IL-6; with Wnt activity) was > 10 µM each time. Besides, the inhibition at 10 µM in experiment [1] came out at 37.6%; in the experiment on SW480 colon cancer cells, 4.1%; in the experiment on IL-6, 18.9%; in the experiment on Wnt activity, 18.8%. Besides, in experiment [2], the Emax is 24%.

In the case of `Nc1cncc(-c2cc3c(-c4cc5c(N6CCCCC6)cncc5[nH]4)n[nH]c3cn2)c1` [Compound 171, 5-(3-(4-(Piperidin-1-yl)-1H-pyrrolo[2,3-c]pyridin-2-yl)-1H-pyrazolo[3,4-c]pyridin-5-yl)pyridin-3-amine], the EC50 in experiment [1] came to 2.64 µM; with SW480 colon cancer cells it was 5.1 µM; with IL-6 it was 1.35 µM; with Wnt activity, 2.96 µM; in experiment [2], 30 nM. The Emax in experiment [2] is 94%.

Turning to `CN(C)Cc1cncc(-c2cc3c(-c4cc5c(-c6ccccc6F)cncc5[nH]4)n[nH]c3cn2)c1` [Compound 69, 1-(5-(3-(4-(2-Fluorophenyl)-1H-pyrrolo[2,3-c]pyridin-2-yl)-1H-pyrazolo[3,4-c]pyridin-5-yl)pyridin-3-yl)-N,N-dimethylmethanamine], the EC50 in experiment [1] is 9.72 µM; in the experiment on SW480 colon cancer cells it was 6.31 µM; in the experiment with IL-6, > 10 µM; in the experiment on Wnt activity it was > 10 µM; in experiment [2], 2700 nM. The inhibition at 10 µM was found to be 24.7% in the experiment with IL-6 and 49.2% in the experiment on Wnt activity. In experiment [2], the Emax worked out at 54%.

For `Nc1cncc(-c2cc3c(-c4cc5c(-c6ccncc6)cncc5[nH]4)n[nH]c3cn2)c1` [Compound 115, 5-(3-(4-(Pyridin-4-yl)-1H-pyrrolo[2,3-c]pyridin-2-yl)-1H-pyrazolo[3,4-c]pyridin-5-yl)pyridin-3-amine], the EC50 in experiment [1] is 3.74 µM; with SW480 colon cancer cells, > 10 µM; in the experiment with IL-6, > 10 µM; in the experiment with Wnt activity, > 10 µM; in experiment [2] it was 10 nM. In addition, the inhibition at 10 µM was 22% in the experiment on SW480 colon cancer cells, 4.3% in the experiment with IL-6 and 14.2% in the experiment on Wnt activity. For the same molecule, the Emax in experiment [2] stood at 52%.

Consider `Fc1cccc(-c2cncc3[nH]c(-c4n[nH]c5cnc(-c6cncc(CN7CCCC7)c6)cc45)cc23)c1` [Compound 14, 3-(4-(3-Fluorophenyl)-1H-pyrrolo[2,3-c]pyridin-2-yl)-5-(5-(pyrrolidin-1-ylmethyl)pyridin-3-yl)-1H-pyrazolo[3,4-c]pyridine], for which the EC50 is 3.54 µM in experiment [1]; 5.69 µM in the experiment on SW480 colon cancer cells; > 10 µM in the experiment with IL-6; 3.97 µM in the experiment with Wnt activity; 100 nM in experiment [2]. In addition, the inhibition at 10 µM in the experiment with IL-6 turned out to be 48.2%. Moreover, the Emax in experiment [2] came out at 81%.

For orientation: inhibition means the percentage by which the read-out fell short of the control.

Source of the values: patent US10383861B2, “3-(1H-pyrrolo[2,3-C]pyridin-2-yl)-1H-pyrazolo[3,4-C]pyridines and therapeutic uses thereof” (Samumed, LLC, priority 2015, dated 2019).
